We go through one compound from patent publication US20110201578A1, “COMPOSITION AND METHODS FOR THE TREATMENT OF PSEUDOFOLLICULITIS BARBAE AND SKIN IRRITATION” (priority 2010, published 2011).

The nature of series [1]: pH of the acidic solution of the substance used by itself. It counts as physicochemical. As to conditions: acetylsalicyclic acid by itself, unbuffered.
Series [2] relates to skin. The series can be described thus: Application to skin, detrimental effects. It counts as in vivo. As to conditions: used by itself, applied to skin; hours and/or days following application. An excerpt: The low pKa results in an acidic solution having a pH of about 1.9, which damages skin and results in skin peeling in the hours and/or days following application to skin.

`CC(=O)Oc1ccccc1C(=O)O` [acetylsalicyclic acid]: the “pH of resulting acidic solution” value in series [1] is “about 1.9”. Also, in series [2], the effect on skin entry is reported as “acts as a skin peeler”.
